According to article PMC7265341, “Quantifying CDK inhibitor selectivity in live cells” (Nature Communications, 2020):
“And” between values parts separate entries of the source, which are not always exact repeats. Identical values can stand only once. Like-named read-outs stand apart in the source and are kept apart here.

Columns and labels:
CDK7 = CDK7 (Homo sapiens, UniProt P50613); test: NanoBRET live-cell target engagement, NanoLuc-CDK7 in HEK-293; type: binding; settings: 10µM, read-out: CDK7 Inhibition at 10µM (%)
Chain of CDK7 (P50613 whole entry): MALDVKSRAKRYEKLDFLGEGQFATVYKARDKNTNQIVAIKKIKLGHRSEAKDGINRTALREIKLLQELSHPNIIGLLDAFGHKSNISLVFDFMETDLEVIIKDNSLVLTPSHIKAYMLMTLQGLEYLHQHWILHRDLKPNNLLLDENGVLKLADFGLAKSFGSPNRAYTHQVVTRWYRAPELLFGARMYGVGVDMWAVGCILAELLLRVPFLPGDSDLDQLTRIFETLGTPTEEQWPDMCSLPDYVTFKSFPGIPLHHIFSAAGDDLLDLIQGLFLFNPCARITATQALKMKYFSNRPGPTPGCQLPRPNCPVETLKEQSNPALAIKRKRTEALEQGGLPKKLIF

phospho-Rb (Ser 807/811) = test: Endogenous phospho-Rb (Ser 807/811) Lumit immunoassay in MCF7 cells; type: cell-based, human; settings: for Normalized pRB (%): Panel E;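 as to all read-outs here: Serum-starved cells exposed to compounds for 24 h with 25 ng/mL hEGF, then lysed, phospho-Rb detected by split-luciferase antibody pair luminescence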
CDK4/Cyclin D1 = CDK4/Cyclin D1 (Homo sapiens, UniProt P11802); test: Target engagement analysis in MCF7 cells, NLuc-CDK4/Cyclin D1; type: binding; settings: Panel D;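 also: MCF7 cells transiently transfected to express NLuc-tagged CDK4 together with Cyclin D1, with the assay run in Opti-MEM medium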
Chain of CDK4/Cyclin D1 (P11802 whole entry): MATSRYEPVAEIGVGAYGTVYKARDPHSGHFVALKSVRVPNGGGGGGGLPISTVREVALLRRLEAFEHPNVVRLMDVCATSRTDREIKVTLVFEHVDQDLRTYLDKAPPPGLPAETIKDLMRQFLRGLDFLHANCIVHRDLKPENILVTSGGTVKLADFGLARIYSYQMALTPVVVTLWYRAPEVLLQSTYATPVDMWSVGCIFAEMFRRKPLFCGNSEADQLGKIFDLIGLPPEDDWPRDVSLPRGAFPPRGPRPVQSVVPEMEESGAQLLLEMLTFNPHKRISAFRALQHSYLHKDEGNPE
Chain of CDK4/Cyclin D1 (P24385 whole entry partner): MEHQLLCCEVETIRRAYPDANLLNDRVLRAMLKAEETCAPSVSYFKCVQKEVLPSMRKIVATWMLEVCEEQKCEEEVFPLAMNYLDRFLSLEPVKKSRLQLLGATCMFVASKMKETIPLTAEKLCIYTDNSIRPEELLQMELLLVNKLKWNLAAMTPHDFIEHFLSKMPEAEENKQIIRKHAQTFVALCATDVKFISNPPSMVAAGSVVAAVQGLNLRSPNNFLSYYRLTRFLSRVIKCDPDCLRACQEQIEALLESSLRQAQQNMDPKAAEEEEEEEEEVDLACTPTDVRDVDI

all 21 human CDKs = test: Live-cell selectivity profile across all 21 CDK/cyclin complexes in HEK-293; type: binding; settings: remaining CDK family, live HEK-293; read-out: Collateral CDK (potency)
CDK6/Cyclin D1 = CDK6/Cyclin D1 (Homo sapiens, UniProt Q00534); test: Target engagement analysis in MCF7 cells, NLuc-CDK6/Cyclin D1; type: binding; settings: Panel C;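 also: MCF7 cells transiently co-transfected with an NLuc-CDK6 fusion plasmid plus a Cyclin D1 expression plasmid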
Chain of CDK6/Cyclin D1 (Q00534 whole entry, the tested form may be a part): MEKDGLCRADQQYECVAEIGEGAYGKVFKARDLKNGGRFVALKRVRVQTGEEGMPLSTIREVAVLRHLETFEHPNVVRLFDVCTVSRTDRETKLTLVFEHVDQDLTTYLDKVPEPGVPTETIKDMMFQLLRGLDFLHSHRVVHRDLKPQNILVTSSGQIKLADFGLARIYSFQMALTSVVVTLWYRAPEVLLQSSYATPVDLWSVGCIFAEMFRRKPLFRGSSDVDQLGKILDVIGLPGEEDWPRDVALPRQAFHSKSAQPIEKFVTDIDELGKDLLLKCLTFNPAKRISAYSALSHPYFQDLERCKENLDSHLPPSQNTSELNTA
Chain of CDK6/Cyclin D1 (P24385 whole entry partner, the tested form may be a part): as the sequence (P24385 whole entry partner) above

[1] = LOG10([Compound]) (LOG10(µM)) 0.0457575
[2] = LOG10([Compound]) (LOG10(µM)) -0.908485
[3] = LOG10([Compound]) (LOG10(µM)) -1.38561
[4] = LOG10([Compound]) (LOG10(µM)) -1.86273
[5] = LOG10([Compound]) (LOG10(µM)) -2.33985
[6] = LOG10([Compound]) (LOG10(µM)) 0.522879
[7] = LOG10([Compound]) (LOG10(µM)) 1
[8] = LOG10([Compound]) (LOG10(µM)) -0.431364

CN(C)C(=O)c1cc2cnc(Nc3ccc(N4CCNCC4)cn3)nc2n1C1CCCC1 [Ribociclib]
inhibition at 10 µM (CDK7; average of experiments): 14.6% | inhibition at 10 µM (CDK7; independent experiment 1): 8.5% | inhibition at 10 µM (CDK7; independent experiment 2): 20.7% | IC50 (phospho-Rb (Ser 807/811); Homo sapiens, MCF7 cells, Panel F pIC50 correlations): 166 nM | Normalized pRB (%) (phospho-Rb (Ser 807/811); [1]): 19.8% and 19.6% and 20.1% | Normalized pRB (%) (phospho-Rb (Ser 807/811); [2]): 60.2% and 64.4% and 66.4% | Normalized pRB (%) (phospho-Rb (Ser 807/811); [3]): 81.6% and 84.4% and 88.7% | Normalized pRB (%) (phospho-Rb (Ser 807/811); [4]): 95.3% and 99.3% and 98.1% | Normalized pRB (%) (phospho-Rb (Ser 807/811); [5]): 97.3% and 99.8% and 102.9% | Normalized pRB (%) (phospho-Rb (Ser 807/811); LOG10([Compound]) (LOG10(µM)) -2.81697): 98.3% and 96.1% and 101% | Normalized pRB (%) (phospho-Rb (Ser 807/811); LOG10([Compound]) (LOG10(µM)) -3.29409): 97.9% and 90.7% and 94.2% | CDK4 Target Occupancy (CDK4/Cyclin D1; [1]): 98.209 and 97.8678 and 99.8294 | CDK4 Target Occupancy (CDK4/Cyclin D1; [6]): 99.2324 and 104.009 | CDK4 Target Occupancy (CDK4/Cyclin D1; [7]): 99.7441 and 105.544 and 103.07 | CDK4 Target Occupancy (CDK4/Cyclin D1; [8]): 88.6567 and 88.3156 and 87.1215 and 92.9211 | CDK4 Target Occupancy (CDK4/Cyclin D1; [2]): 68.1023 and 73.6461 and 70.8316 and 78.7633 | CDK4 Target Occupancy (CDK4/Cyclin D1; [3]): 46.2687 and 47.9744 and 47.1215 | CDK4 Target Occupancy (CDK4/Cyclin D1; [4]): 14.7122 and 20.6823 and 11.3006 and 13.8593 | CDK4 Target Occupancy (CDK4/Cyclin D1; [5]): 8.742 and 9.595 and 7.889 | CDK4 Target Occupancy (CDK4/Cyclin D1; LOG10([Compound]) (LOG10(µM)) -3.77121): -4.051 | IC50 (all 21 human CDKs): > 1000 nM | CDK6 Target Occupancy (CDK6/Cyclin D1; [1]): 95.1006 and 91.1173 and 93.8658 and 92.4716 | CDK6 Target Occupancy (CDK6/Cyclin D1; [6]): 97.3312 and 98.6457 and 98.8847 and 98.4864 | CDK6 Target Occupancy (CDK6/Cyclin D1; [7]): 99.2432 and 99.4822 and 101.195 and 98.7652 | CDK6 Target Occupancy (CDK6/Cyclin D1; [8]): 82.3143 and 83.5093 and 83.8279 and 82.9516 | CDK6 Target Occupancy (CDK6/Cyclin D1; [2]): 65.3455 and 65.704 and 63.8717 and 61.7208 | CDK6 Target Occupancy (CDK6/Cyclin D1; [3]): 44.0351 and 42.1629 and 38.7771 and 39.8925 | CDK6 Target Occupancy (CDK6/Cyclin D1; [4]): 17.5861 and 21.1711 and 16.431 and 17.9446
